The nature of this series: Pulsating bubble surfactometry: minimum surface tension and time to reach it. It is filed as physicochemical. From the text:
One of the most important properties of the polymer/phospholipid complexes in accordance with the invention, especially for use as artificial lung surfactants, is the manner in which the surface tension varies with repetitive changes in surface area, and one test method that has been used is a pulsating bubble technique using a pulsating bubble surfactometer which consists of a sample chamber, pulsator unit and pressure-recording device. In a particular example, the sample chamber is made up of a capillary tube (ID 0.5 mm) inserted into a wider diameter tube (ID 1.5 mm). The latter is filled with the sample liquid and connected to a pulsator unit and pressure transducer. Air is drawn in through the capillary tube which acts as an airways forming a bubble of air within the sample chamber. This bubble serves as a model alveolus. […] Variations of pressure within the bubble, during each pulsation cycle, are measured by a transducer and combined with values of bubble volume to calculate changes in surface tension.
This pulsating bubble technique simulates to some extent the contraction and expansion of the alveoli sacks in the lungs and allows the surface tension to be assessed at minimum and maximum bubble volumes, and allows the effect of repeated expansion and compression cycles upon the adsorption of surface active components to be observed and quantified. This technique has been used as a model in vitro system for testing the efficacy of synthetic lung surfactants. Some results of tests carried out not only on the complexes prepared in accordance with the invention, but also on the membrane-forming phospholipids used and the polymers themselves, as well as on commercially available lung surfactants, are summarised in the Tables at the end of the present description.
Showing minimum Surface Tension (ST) value achieved and time to reach this level.
Pulse Rate (PR)=34, Temp=Room Temp & pH=7.0 unless otherwise stated.

[1] abbreviates: DLPC (fresh) 0.5, pH 7.12, 25.1 °C, pulse rate 30/min.
Setting [2] is: DPPC 0.5, pH 4.1, 21.9 °C, pulse rate 30/min.
The mark [3] stands for this setting: DPPC (fresh) 0.5, pH 6.3, 24.9 °C, pulse rate 30/min.
Where [4] appears, read: DPPC sonicated 0.5, pH 7.3, 24.0 °C, pulse rate 30/min.
[5] abbreviates: DPPC sonicated 0.5, pH 7.3, 37.5 °C, after 40 mins at room temp, pulse rate 30/min.
Setting [6] is: LALE 1.0%, pH 7.0 (default), PR 34, room temp.
The mark [7] stands for this setting: DPPC sonicated 0.5, pH 7.3, 37.5 °C, pulse rate 30/min.
Where [8] appears, read: DLPC (fresh) sonicated 0.5, pH 3.92, 24.0 °C, pulse rate 30/min.
Setting [9] is: 1.0%, pH 3.22, PR = 12, room temp.
[10] abbreviates: 1.0%, pH 7.0 (default), PR 34, room temp, 2 hrs hydration.
[11] abbreviates: 1.0%, pH 7.0 (default), PR 34, room temp, 12 hr hydration.
Setting [12] is: 1.0%, pH 9.33, PR = 12, room temp.
[13] abbreviates: 1.0%, pH 12.00, PR 34, room temp.
Setting [14] is: […], pH 7.0 (default), PR 34, room temp, Sonicated.
Setting [15] is: DPPC sonicated 0.5, pH 7.3, 23.1 °C, pulse rate 30/min.

These results are taken from patent US6436905B1, “Lipid-containing compositions and uses thereof” (Aston University, priority 1997, dated 2002).

Turning to `CCCCCCCCCCCC(=O)OC[C@H](COP(=O)([O-])OCC[N+](C)(C)C)OC(=O)CCCCCCCCCCC` [dlfs7], under setting [1], the “Minimal ST <10 dynes/cm” value is 18.25 dynes/cm and the Time to Develop came out at 20 min.

Consider `CCCCCCCCCCCCCCCC(=O)OC[C@H](COP(=O)([O-])OCC[N+](C)(C)C)OC(=O)CCCCCCCCCCCCCCC` [dlpf4], for which, under setting [2], the “Minimal ST <10 dynes/cm” value was determined as 5.31 dynes/cm and the Time to Develop was determined as 30 min.

As for `CCCCCCCCCCCCCCCC(=O)OC[C@H](COP(=O)([O-])OCC[N+](C)(C)C)OC(=O)CCCCCCCCCCCCCCC` [dlpf6], under setting [3], the “Minimal ST <10 dynes/cm” value came to 16.18 dynes/cm and the Time to Develop was determined as 30 min.

With `CCCCCCCCCCCCCCCC(=O)OC[C@H](COP(=O)([O-])OCC[N+](C)(C)C)OC(=O)CCCCCCCCCCCCCCC` [dpf7s], under setting [4], the “Minimal ST <10 dynes/cm” value stood at 9.99 dynes/cm and the Time to Develop worked out at 20 min. For the same molecule, under setting [5], the “Minimal ST <10 dynes/cm” value was found to be 27.95 dynes/cm and the Time to Develop turned out to be 40 min.

The molecule `CCCCCCCCCCCC(=O)OC[C@H](COP(=O)([O-])OCC[N+](C)(C)C)OC(=O)CCCCCCCCCCC` [dlf5] came in with a Time to Develop (DLPC (fresh) 0.5, pH 5.47, 24.0 °C, pulse rate 30/min, first line) of 20 min and a Time to Develop (DLPC (fresh) 0.5, pH 5.47, 24.0 °C, pulse rate 30/min, second line) of 40 min. Moreover, the “Minimal ST <10 dynes/cm” value (DLPC (fresh) 0.5, pH 5.47, 24.0 °C, pulse rate 30/min, first line (time 20)) is 12.57 dynes/cm and the “Minimal ST <10 dynes/cm” value (DLPC (fresh) 0.5, pH 5.47, 24.0 °C, pulse rate 30/min, second line (time 40)) amounted to 0.04 dynes/cm.

`CCCCCCCCCCCCOC(=O)CCCCCCCCCCC` [LALE, Lauric acid lauryl ester]: under setting [6], the “Minimal ST” value is recorded as 22.61 dynes/cm and the “Time to Develop” value was found to be 30 min.

Consider `CCCCCCCCCCCCCCCC(=O)OC[C@H](COP(=O)([O-])OCC[N+](C)(C)C)OC(=O)CCCCCCCCCCCCCCC` [dp7st], for which, under setting [7], the “Minimal ST <10 dynes/cm” value worked out at 26.58 dynes/cm and the Time to Develop is 2 min.

As to `CCCCCCCCCCCC(=O)OC[C@H](COP(=O)([O-])OCC[N+](C)(C)C)OC(=O)CCCCCCCCCCC` [dlfs4], under setting [8], the “Minimal ST <10 dynes/cm” value amounted to 1.67 dynes/cm and the Time to Develop stood at 10 min.

For `CCCCCCCCCCCC(=O)OC[C@H](COP(=O)([O-])OCC[N+](C)(C)C)OC(=O)CCCCCCCCCCC` [DLPC, Dilaurylphosphatidylcholine], the “Minimal ST” value under setting [9] is recorded as 6.39 dynes/cm; the “Minimal ST” value under setting [10] is recorded as 6.82 dynes/cm; the “Minimal ST” value under setting [11] is on record as 24.89 dynes/cm; the “Minimal ST” value under setting [12] was determined as 15.66 dynes/cm; the “Minimal ST” value under setting [13] is recorded as 15.10 dynes/cm; the “Minimal ST” value under setting [14] amounted to 9.60 dynes/cm. Also, the “Time to Develop” value under setting [9] amounted to 30 min; the “Time to Develop” value under setting [10] stood at 20 min; the “Time to Develop” value under setting [11] was 30 min; the “Time to Develop” value under setting [12] is 30 min; the “Time to Develop” value under setting [13] amounted to 30 min; the “Time to Develop” value under setting [14] worked out at 30 min.

As to `CCCCCCCCCCCCCCCC(=O)OC[C@H](COP(=O)([O-])OCC[N+](C)(C)C)OC(=O)CCCCCCCCCCCCCCC` [dlpf7], under setting [15], the “Minimal ST <10 dynes/cm” value was determined as 20.36 dynes/cm and the Time to Develop came to 40 min.
